Reference: article PMC7126728 (Bioorganic & Medicinal Chemistry, 2015)

Assays:
[1] = system: VZV; format: cell-based, varicella zoster virus; details: HEL cell cultures
[2] = system: HCMV; format: cell-based, human cytomegalovirus; details: HEL cell cultures

SMILES | anti-VZV activity (in words) [1] | anti-HCMV activity (in words) [2]
O=C(Cn1c(=O)ccn(CCCCCOc2ccccc2)c1=O)Nc1ccc(Oc2ccccc2)cc1 [Compound 7a, 2-[2,6-Dioxo-3-(5-phenoxypentyl)-3,6-dihydropyrimidin-1(2H)-yl]-N-(4-phenoxyphenyl)acetamide] | inactive | –
O=C(Cn1c(=O)c(I)cn(CCCCCOc2ccc(Br)cc2)c1=O)Nc1ccc(Oc2ccccc2)cc1 [Compound 7j, 2-[3-[5-(4-Bromophenoxy)pentyl]-5-iodo-2,6-dioxo-3,6-dihydropyrimidin-1(2H)-yl]-N-(4-phenoxyphenyl)acetamide] | completely inactive | completely inactive
O=C(Cn1c(=O)ccn(CCCCCCc2ccccc2)c1=O)Nc1ccc(Oc2ccccc2)cc1 [Compound 13, 2-[2,6-Dioxo-3-(6-phenylhexyl)-3,6-dihydropyrimidin-1(2H)-yl]-N-(4-phenoxyphenyl)acetamide] | loss of activity | loss of activity
O=C(Cn1c(=O)ccn(CCCCOCc2ccc(Br)cc2)c1=O)Nc1ccc(Oc2ccccc2)cc1 [Compound 17, 2-[3-[4-(4-Bromobenzyloxy)butyl]-2,6-dioxo-3,6-dihydropyrimidin-1(2H)-yl]-N-(4-phenoxyphenyl)acetamide] | loss of activity | –
O=C(Cn1c(=O)ccn(COCCOCc2ccc(Br)cc2)c1=O)Nc1ccc(Oc2ccccc2)cc1 [Compound 20, 2-[3-[[2-(4-Bromobenzyloxy)ethoxy]methyl]-2,6-dioxo-3,6-dihydropyrimidin-1(2H)-yl]-N-(4-phenoxyphenyl)acetamide] | loss of activity | completely inactive
O=C(Cn1c(=O)ccn(Cc2ccc(Oc3ccc(Br)cc3)cc2)c1=O)Nc1ccc(Oc2ccccc2)cc1 [Compound 23, 2-[3-[4-(4-Bromophenoxy)benzyl]-2,6-dioxo-3,6-dihydropyrimidin-1(2H)-yl]-N-(4-phenoxyphenyl)acetamide] | loss of activity | –
